Here are results for 5 compounds from patent US20240067693A1, “POLYPEPTIDES AND USES THEREOF” (MEDIMMUNE LIMITED, priority 2020, published 2024).

Experiment [1] addresses T1, human amylin receptor (calcitonin receptor co-expressed with receptor activity modifying protein, RAMP3) (hAMYR3) (Homo sapiens, UniProt O60896+P30988).
T1 construct: expressed in transfected cells
T1 sequence (P30988 25-474): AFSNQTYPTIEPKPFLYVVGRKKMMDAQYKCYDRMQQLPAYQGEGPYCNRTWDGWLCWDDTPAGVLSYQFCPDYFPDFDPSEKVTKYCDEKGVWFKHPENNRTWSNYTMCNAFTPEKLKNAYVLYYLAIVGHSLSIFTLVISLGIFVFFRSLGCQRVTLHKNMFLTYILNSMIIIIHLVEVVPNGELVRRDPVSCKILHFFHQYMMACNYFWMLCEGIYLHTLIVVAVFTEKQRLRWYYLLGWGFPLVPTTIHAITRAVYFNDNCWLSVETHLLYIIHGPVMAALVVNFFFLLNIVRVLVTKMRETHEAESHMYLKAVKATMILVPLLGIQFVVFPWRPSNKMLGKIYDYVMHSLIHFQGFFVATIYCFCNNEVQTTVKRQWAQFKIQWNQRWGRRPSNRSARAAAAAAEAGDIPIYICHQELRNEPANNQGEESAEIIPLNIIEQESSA
T1 sequence (O60896 24-148 partner): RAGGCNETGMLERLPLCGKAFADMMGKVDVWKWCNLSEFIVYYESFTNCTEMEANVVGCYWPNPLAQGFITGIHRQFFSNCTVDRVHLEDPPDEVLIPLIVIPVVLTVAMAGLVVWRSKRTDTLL
Nature of the experiment: cAMP production in 1321N1 cells with stable recombinant expression of human amylin receptor (hAMYR3). In kind it is cell-based. The note with it: for Ratio (selectivity hAMYR vs hCTR, ratio of EC50 values at the two receptors): EC50 hCTR / EC50 hAMYR3; for EC50: cAMP, 1321N1 cells, assay buffer with 0.1% BSA, read-out: EC50 (pM) hAMYR3. Here is the method: (§1) The functional activities of lipidated pramlintide analogue peptides, such as cAMP production, were tested in 1321N1 cell line with stable recombinant expression of human calcitonin receptor (hCTR) or human amylin receptor (calcitonin receptor co-expressed with receptor activity modifying protein, RAMP3) (hAMYR3) or HEK cells with stable recombinant expression of rat calcitonin receptor (rat CTR) or rat amylin receptor (calcitonin receptor co-expressed with receptor activity modifying protein, RAMP3) (Rat AMYR3).
(§2) Cryopreserved cell stock was thawed rapidly in a water-bath, suspended in assay buffer (0.1% BSA (Sigma # A3059) in HBSS (Sigma # H8264) with 25 mM HEPES, pH 7.4 and containing 0.5 mM IB MX (Sigma# 17018)) and spun at 240×g for 5 minutes. Cells were re-suspended in assay buffer at a batch-dependent optimized concentration (e.g. hCTR cells at 0.125×10^5 cells/mL, hAMYR3 cells at 0.125×10^5 cells/mL, rat CTR cells at 1x10^5 cells/mL, rat AMYR3 at 2×10^5 cells/mL).
(§3) The test peptide stock was prepared in DMSO and diluted in assay buffer to reach stated concentrations and transferred in duplicates into a 384-black shallow well microtitre assay plate (Corning # 3676). Cells were added to the assay plate, incubated at room temperature for 30 minutes and the cAMP level measured using cAMP dynamic 2 HTRF kit (Cisbio, Cat # 62AM4PEJ), following the two step protocol as per manufacturer's recommendations. The plates were read on an Envision (Perkin Elmer) using excitation wavelength of 320 nm and emission wavelengths of 620nm & 665 nm.
(§4) Data was transformed to % Delta F as described in the manufacturer's guidelines and analyzed as percent activation of maximal amylin or calcitonin effect by 4-parameter logistic fit to determine EC50 values. The selectivity of a peptide to hAMYR vs hCTR is defined as a ratio of EC50 values at the two receptors.
(Changes in cAMP serve as a functional read-out for many G protein-coupled receptors.)

Experiment [2] addresses T2, human calcitonin receptor (hCTR) (Homo sapiens, UniProt P30988).
T2 construct: expressed in transfected cells
T2 sequence (P30988 25-474): T1 sequence (P30988 25-474)
Nature of the experiment: cAMP production in 1321N1 cells with stable recombinant expression of human calcitonin receptor (hCTR). Format: cell-based. To be noted: cAMP, 1321N1 cells, assay buffer with 0.1% BSA; read-out: EC50 (pM) hCTR. As to the method:
as §1, §2, §3, §4

Numbered stars: 1 amine (or outer) side, 2 acyl side, 3 side chain; on linkers, the order of the positions; unused ones are H or OH. Bridge positions count the residues as written; N and C are the ends. Square brackets hold non-standard residues; d marks the D form. Side chains are listed from the residue outwards. Peptide text beside a SMILES is read from it. * marks the point of attachment. C18 diacid = O=C(O)CCCCCCCCCCCCCCCCC(=O)*; γGlu = O=C(O)[C@H](CCC(=O)[*:2])N[*:1]; αMeF = C[C@](N)(Cc1ccccc1)C(=O)O; Dab = NCC[C@H](N)C(=O)O; Aib = CC(C)(N)C(=O)O

On to `CC[C@H](C)[C@H](NC(=O)[C@@H]1CCCN1C(=O)CNC(=O)[C@H](Cc1ccccc1)NC(=O)[C@H](CC(N)=O)NC(=O)[C@H](CCN)NC(=O)[C@H](CO)NC(=O)[C@H](CO)NC(=O)[C@H](Cc1c[nH]cn1)NC(=O)[C@@H](NC(=O)[C@H](CC(C)C)NC(=O)[C@H](Cc1ccccc1)NC(=O)[C@H](CC(N)=O)NC(=O)[C@H](C)NC(=O)[C@H](CC(C)C)NC(=O)[C@H](CCCNC(=N)N)NC(=O)[C@H](CCC(N)=O)NC(=O)[C@@H](NC(=O)[C@H](C)NC(=O)[C@@H]1CSSC[C@H](NC(=O)[C@H](CCCCN)NC(=O)[C@@H](N)CCCCNC(=O)CC[C@H](NC(=O)CCCCCCCCCCCCCCCCC(=O)O)C(=O)O)C(=O)N[C@@H](CC(N)=O)C(=O)N[C@@H]([C@@H](C)O)C(=O)N[C@@H](C)C(=O)N[C@@H]([C@@H](C)O)C(=O)N1)[C@@H](C)O)C(C)C)C(=O)N[C@@H](CC(C)C)C(=O)N1CCC[C@H]1C(=O)N1CCC[C@H]1C(=O)N[C@H](C(=O)N[C@@H](CC(N)=O)C(=O)N[C@H](C(=O)NCC(=O)N[C@@H](CO)C(=O)N[C@@H](CC(N)=O)C(=O)N[C@H](C(=O)N[C@@H](Cc1ccc(O)cc1)C(N)=O)[C@@H](C)O)C(C)C)[C@@H](C)O` [Peptide 29, K(γE-C18diacid)K[CNTATC]ATQRLANFLVHSS(Dab)NFGPILPPTNVGSNTY-amide] (H-K([γGlu-C18 diacid])KCNTATCATQRLANFLVHSS[Dab]NFGPILPPTNVGSNTY-NH2; disulfide 3-8; N-terminus assumed), for which, in experiment [1], the “Ratio (selectivity hAMYR vs hCTR, ratio of EC50 values at the two receptors)” value was 34 and the EC50 (in general, the midpoint of the concentration-response curve) amounted to 243 pM. Also, the EC50 in experiment [2] stood at 8210 pM.
In the case of `CC[C@H](C)[C@H](NC(=O)[C@@H]1CCCN1C(=O)CNC(=O)[C@H](Cc1ccccc1)NC(=O)[C@H](CC(N)=O)NC(=O)[C@H](CCN)NC(=O)[C@H](CO)NC(=O)[C@H](CO)NC(=O)[C@H](Cc1c[nH]cn1)NC(=O)C(C)(C)NC(=O)[C@H](CC(C)C)NC(=O)[C@H](Cc1ccccc1)NC(=O)[C@H](CC(N)=O)NC(=O)[C@H](C)NC(=O)[C@H](CC(C)C)NC(=O)[C@H](CCCNC(=N)N)NC(=O)[C@H](CCC(N)=O)NC(=O)[C@@H](NC(=O)[C@H](C)NC(=O)[C@@H]1CSSC[C@H](NC(=O)[C@H](CCCCN)NC(=O)[C@@H](N)CCCCNC(=O)CC[C@H](NC(=O)CCCCCCCCCCCCCCCCC(=O)O)C(=O)O)C(=O)N[C@@H](CC(N)=O)C(=O)N[C@@H]([C@@H](C)O)C(=O)N[C@@H](C)C(=O)N[C@@H]([C@@H](C)O)C(=O)N1)[C@@H](C)O)C(=O)N[C@@H](CC(C)C)C(=O)N1CCC[C@H]1C(=O)N1CCC[C@H]1C(=O)N[C@H](C(=O)N[C@@H](CCC(=O)O)C(=O)N[C@H](C(=O)NCC(=O)N[C@@H](CO)C(=O)N[C@@H](CC(N)=O)C(=O)N[C@H](C(=O)N[C@@H](Cc1ccc(O)cc1)C(N)=O)[C@@H](C)O)C(C)C)[C@@H](C)O` [Peptide 30, K(γE-C18diacid)K[CNTATC]ATQRLANFL(Aib)HSS(Dab)NFGPILPPTEVGSNTY-amide] (H-K([γGlu-C18 diacid])KCNTATCATQRLANFL[Aib]HSS[Dab]NFGPILPPTEVGSNTY-NH2; disulfide 3-8; N-terminus assumed), in experiment [1], the “Ratio (selectivity hAMYR vs hCTR, ratio of EC50 values at the two receptors)” value amounted to 12 and the half-maximal effective concentration (EC50) was found to be 873 pM. In experiment [2], the concentration giving a half-maximal response (EC50) stood at 10500 pM.
Taken in the same sequence, the figures for `CC[C@H](C)[C@H](NC(=O)C(C)(C)NC(=O)CNC(=O)[C@H](Cc1ccccc1)NC(=O)[C@H](CC(N)=O)NC(=O)[C@H](CCN)NC(=O)[C@H](CO)NC(=O)[C@H](CO)NC(=O)[C@H](Cc1c[nH]cn1)NC(=O)[C@@H](NC(=O)[C@H](CC(C)C)NC(=O)[C@H](Cc1ccccc1)NC(=O)[C@H](CC(N)=O)NC(=O)[C@H](C)NC(=O)[C@H](CC(C)C)NC(=O)[C@H](CCCNC(=N)N)NC(=O)[C@H](CCC(N)=O)NC(=O)[C@@H](NC(=O)[C@H](C)NC(=O)[C@@H]1CSSC[C@H](NC(=O)[C@H](CCCCN)NC(=O)[C@@H](N)CCCCNC(=O)CC[C@H](NC(=O)CCCCCCCCCCCCCCCCC(=O)O)C(=O)O)C(=O)N[C@@H](CC(N)=O)C(=O)N[C@@H]([C@@H](C)O)C(=O)N[C@@H](C)C(=O)N[C@@H]([C@@H](C)O)C(=O)N1)[C@@H](C)O)C(C)C)C(=O)N[C@@H](CC(C)C)C(=O)N1CCC[C@H]1C(=O)N1CCC[C@H]1C(=O)N[C@H](C(=O)N[C@@H](CC(N)=O)C(=O)N[C@H](C(=O)NCC(=O)N[C@@H](CO)C(=O)N[C@@H](CC(N)=O)C(=O)N[C@H](C(=O)N[C@@H](Cc1ccc(O)cc1)C(N)=O)[C@@H](C)O)C(C)C)[C@@H](C)O` [Peptide 31, K(γE-C18diacid)K[CNTATC]ATQRLANFLVHSS(Dab)NFG(Aib)ILPPTNVGSNTY-amide] (H-K([γGlu-C18 diacid])KCNTATCATQRLANFLVHSS[Dab]NFG[Aib]ILPPTNVGSNTY-NH2; disulfide 3-8; N-terminus assumed) were 4, 349 pM and 1280 pM.
`CC[C@H](C)[C@H](NC(=O)[C@@H]1CCCN1C(=O)CNC(=O)[C@](C)(Cc1ccccc1)NC(=O)[C@H](CC(N)=O)NC(=O)[C@H](CC(N)=O)NC(=O)[C@H](CO)NC(=O)[C@H](CO)NC(=O)[C@H](Cc1c[nH]cn1)NC(=O)[C@@H](NC(=O)[C@H](CC(C)C)NC(=O)[C@H](Cc1ccccc1)NC(=O)[C@H](CCN)NC(=O)[C@H](C)NC(=O)[C@H](CC(C)C)NC(=O)[C@H](CCCNC(=N)N)NC(=O)[C@H](CCC(N)=O)NC(=O)[C@@H](NC(=O)[C@H](C)NC(=O)[C@@H]1CSSC[C@H](NC(=O)[C@H](CCCCN)NC(=O)[C@@H](N)CCCCNC(=O)CC[C@H](NC(=O)CCCCCCCCCCCCCCCCC(=O)O)C(=O)O)C(=O)N[C@@H](CC(N)=O)C(=O)N[C@@H]([C@@H](C)O)C(=O)N[C@@H](C)C(=O)N[C@@H]([C@@H](C)O)C(=O)N1)[C@@H](C)O)C(C)C)C(=O)N[C@@H](CC(C)C)C(=O)N1CCC[C@H]1C(=O)N1CCC[C@H]1C(=O)N[C@H](C(=O)N[C@@H](CCC(=O)O)C(=O)N[C@H](C(=O)NCC(=O)N[C@@H](CO)C(=O)N[C@@H](CC(N)=O)C(=O)N[C@H](C(=O)N[C@@H](Cc1ccc(O)cc1)C(N)=O)[C@@H](C)O)C(C)C)[C@@H](C)O` [Peptide 32, K(γE-C18diacid)K[CNTATC]ATQRLA(Dab)FLVHSSNN(αMePhe)GPILPPTEVGSNTY-amide] (H-K([γGlu-C18 diacid])KCNTATCATQRLA[Dab]FLVHSSNN[αMeF]GPILPPTEVGSNTY-NH2; disulfide 3-8; N-terminus assumed): the “Ratio (selectivity hAMYR vs hCTR, ratio of EC50 values at the two receptors)” value in experiment [1] is reported as 15. Further, the figures for the EC50 in experiment [1] and in experiment [2] were 742 pM and 11100 pM, respectively.
As for `CC[C@H](C)[C@H](NC(=O)[C@@H]1CCCN1C(=O)CNC(=O)[C@H](Cc1ccccc1)NC(=O)[C@H](CC(N)=O)NC(=O)[C@H](CC(N)=O)NC(=O)[C@H](CO)NC(=O)[C@H](CO)NC(=O)[C@H](Cc1c[nH]cn1)NC(=O)[C@@H](NC(=O)[C@H](CC(C)C)NC(=O)[C@H](Cc1ccccc1)NC(=O)[C@H](CCN)NC(=O)[C@H](C)NC(=O)[C@H](CC(C)C)NC(=O)[C@H](CCCNC(=N)N)NC(=O)[C@H](CCC(N)=O)NC(=O)[C@@H](NC(=O)[C@H](C)NC(=O)[C@@H]1CSSC[C@H](NC(=O)[C@H](CCCCN)NC(=O)[C@@H](N)CCCCNC(=O)CC[C@H](NC(=O)CCCCCCCCCCCCCCCCC(=O)O)C(=O)O)C(=O)N[C@@H](CC(N)=O)C(=O)N[C@@H]([C@@H](C)O)C(=O)N[C@@H](C)C(=O)N[C@@H]([C@@H](C)O)C(=O)N1)[C@@H](C)O)C(C)C)C(=O)N[C@@H](CC(C)C)C(=O)N1CCC[C@H]1C(=O)N1CCC[C@H]1C(=O)N[C@H](C(=O)N[C@@H](CCC(=O)O)C(=O)N[C@H](C(=O)NCC(=O)N[C@@H](CO)C(=O)N[C@@H](CC(N)=O)C(=O)N[C@H](C(=O)N[C@@H](Cc1ccc(O)cc1)C(N)=O)[C@@H](C)O)C(C)C)[C@@H](C)O` [Peptide 34] (H-K([γGlu-C18 diacid])KCNTATCATQRLA[Dab]FLVHSSNNFGPILPPTEVGSNTY-NH2; disulfide 3-8; N-terminus assumed), in experiment [1], the “Ratio (selectivity hAMYR vs hCTR, ratio of EC50 values at the two receptors)” value came to 20 and the 50% effective concentration (EC50) turned out to be 877 pM. In addition, the EC50 in experiment [2] was 17700 pM.
